Measurements from patent US9024021B2, “Diarylacetylene hydrazide containing tyrosine kinase inhibitors” (Sun Pharma Advanced Research Company Ltd., priority 2011, dated 2015).

Key:
[1] = tested on: K562 cells; test: In-vitro cell proliferation assay (MTT), K562 cells; format: cell-based; settings: for inhibition at 0.01 µM / inhibition at 0.1 µM: Homo sapiens
Procedure: In-Vitro Cell Proliferation Assay
K562/U937 cells (2×10^4 per well) were incubated with the test compounds/vehicle in a total volume of 200 μL of media at 37° C. with 5% CO2. […] The cells were incubated overnight at 37° C. with 5% CO2. On Day 5 the optical density was measured at 570 nm with 630 nm as reference wavelength. The optical density in the vehicle treated wells was compared with that of the test compound treated wells.

[2] = molecular target: T1, Abl (T315I) (human) (Homo sapiens, UniProt P00519, T315I); test: Abl-T315I kinase inhibition (in vitro); format: biochemical
T1 construct: purchased Millipore Pharma Services (contract assay, UK pharmacology laboratory)
Procedure: The kinase assays were performed by Millipore Pharma Services at their UK pharmacology laboratory.
[specific activity approx. 500 cpm/pmol, concentration as required). The reaction is initiated by the addition of the MgATP mix. After incubation for 40 minutes at room temperature, the reaction is stopped by the addition of 5 μL of a 3% phosphoric acid solution. 10 μL of the reaction is then spotted onto a P30 filtermat and washed three times for 5 minutes in 75 mM phosphoric acid and once in methanol prior to drying and scintillation counting.
Within each kinase assay, percent of control values were calculated for each test compound raw data point based on mean minimum (0%) and maximum (100%) controls (n=4 per control) for that kinase (sample−mean minimum/mean maximum−mean minimum×100%). Percent inhibition was calculated from these values (100−mean percent of control).

Row | Structure (SMILES) | inhibition at 0.01 µM ([1]; 10 nM) [%] | inhibition at 0.1 µM ([1]; 100 nM) [%] | further results
1 | Cc1ccc(C(=O)NNC(=O)c2c(Cl)cc(Cl)cc2Cl)cc1C#Cc1cnc2ccccc2c1 [I.1, 2,4,6-Trichloro-N′-[4-methyl-3-[2-(3-quinolyl)ethynyl]benzoyl]benzohydrazide] | 101 | 105 | 
2 | Cc1ccc(C(=O)NNC(=O)c2ccc(CN3CCN(C)CC3)c(C(F)(F)F)c2)cc1C#Cc1cnc2ccccc2c1 [I.3, 4-Methyl-N′-[4-[(4-methylpiperazin-1-yl)methyl]-3-(trifluoromethyl)benzoyl]-3-[2-(3-quinolyl)ethynyl]benzohydrazide] | 14.6 | 73.4 | 
3 | Cc1ccc(C(=O)NNC(=O)c2c(Cl)cccc2Cl)cc1C#Cc1cnc2ccccc2c1 [I.5, N′-(2,6-Dichlorobenzoyl)-4-methy1-3-[2-(3-quinolyl)ethynyl]benzohydrazide] |  |  | % Inhibition of cell proliferation in K562 cells ([1]; 10 nM): 99.8%; % Inhibition of cell proliferation in K562 cells ([1]; 100 nM): 99.9%; % Inhibition of Abl-T315I kinase ([2]; 3 nM): 30.0%; % Inhibition of Abl-T315I kinase ([2]; 30 nM): 83.0%
4 | Cc1cn(-c2cc(C(=O)NNC(=O)c3ccc(C)c(C#Cc4cnc5ccccc5c4)c3)cc(C(F)(F)F)c2)cn1 [I.7, 4-Methyl-N′-[3-(4-methylimidazol-1-yl)-5-(trifluoromethyl)benzoyl]-3-[2-(3-quinolyl)ethynyl]benzohydrazide] | 12.6 | 43.1 | 
5 | Cc1cc(C)c(C(=O)NNC(=O)c2ccc(C)c(C#Cc3cnc4ccccc4c3)c2)c(C)c1 [I.8, 2,4,6-Trimethyl-N′-[4-methyl-3-[2-(3-quinolyl)ethynyl]benzoyl]benzohydrazide] | 53.6 | 80.3 | 
6 | Cc1ccc(C(=O)NNC(=O)c2c(C)cccc2Br)cc1C#Cc1cnc2ccccc2c1 [I.11, N′-(2-Bromo-6-methylbenzoyl)-4-methyl-3-[2-(3-quinolyl)ethynyl]benzohydrazide] | 78.9 | 79.9 | 
7 | COc1cccc(C)c1C(=O)NNC(=O)c1ccc(C)c(C#Cc2cnc3ccccc3c2)c1 [I.13, N′-(2-Methoxy-6-methylbenzoyl)-4-methyl-3-[2-(3-quinolyl)ethynyl]benzohydrazide] | 52.2 | 73.5 | 
8 | Cc1ccc(C(=O)NNC(=O)c2c(C)cccc2F)cc1C#Cc1cnc2ccccc2c1 [I.14, N′-(2-Fluoro-6-methylbenzoyl)-4-methyl-3-[2-(3-quinolyl)ethynyl]benzohydrazide] | 68.5 | 71.7 | inhibition at 0.003 µM ([2]; 3 nM): 1%; inhibition at 0.03 µM ([2]; 30 nM): 60%
9 | Cc1ccc(C(=O)NNC(=O)c2c(Cl)cc(Cl)cc2Cl)cc1C#Cc1cnc2cnccn12 [I.15, 2,4,6-Trichloro-N′-[3-[2-(2-imidazo[1,2-a]pyrazin-3-yl)ethynyl]-4-methylbenzoyl]benzohydrazide] |  |  | % Inhibition of cell proliferation in K562 cells ([1]; 10 nM): 82.8%; % Inhibition of cell proliferation in K562 cells ([1]; 100 nM): 85.0%
10 | Cc1ccc(C(=O)NNC(=O)c2c(C)cccc2Cl)cc1C#Cc1cnc2ccccn12 [I.19, N′-(2-Chloro-6-methylbenzoyl)-3-[2-(imidazo[1,2-a]pyridin-3-yl)ethynyl]-4-methylbenzohydrazide] | 60.2 | 80.2 | 
11 | Cc1cccc(Cl)c1C(=O)NNC(=O)c1ccc(F)c(C#Cc2cnc3ccccc3c2)c1 [I.21, N′-(2-Cchloro-6-methylbenzoyl)-4-fluoro-3-[2-(3-quinolyl)ethynyl]benzohydrazide] |  |  | % Inhibition of cell proliferation in K562 cells ([1]; 10 nM): 40.9%; % Inhibition of cell proliferation in K562 cells ([1]; 100 nM): 98.6%
12 | Cc1ccc(C(=O)NNC(=O)c2c(F)cccc2I)cc1C#Cc1cnc2ccccc2c1 [I.23, N′-(2-Fluoro-6-iodobenzoyl)-4-methyl-3-[2-(3-quinolyl)ethynyl]benzohydrazide] | 68.1 | 72.6 | 
13 | Cc1ccc(C(=O)NNC(=O)c2c(Cl)cccc2C(F)(F)F)cc1C#Cc1cnc2ccccc2c1 [I.24, N′-[2-Chloro-6-(trifluoromethyl)benzoyl]-4-methyl-3-[2-(3-quinolyl)ethynyl]benzohydrazide] | 71.1 | 71.3 | 
14 | Cc1ccc(C(=O)NNC(=O)c2c(F)cccc2C(F)(F)F)cc1C#Cc1cnc2ccccc2c1 [I.25, N′-[2-Fluoro-6-(trifluoromethyl)benzoyl]-4-methyl-3-[2-(3-quinolyl)ethynyl]benzohydrazide] | 71.5 | 73 | inhibition at 0.003 µM ([2]; 3 nM): 26%; inhibition at 0.03 µM ([2]; 30 nM): 65%
15 | Cc1ccc(C(=O)NNC(=O)c2c(C)cccc2Cl)cc1C#Cc1cnc2ccc(Cl)cc2n1 [I.26, N′-(2-Chloro-6-methylbenzoyl)-3-[2-(7-chloroquinoxalin-2-yl)ethynyl]-4-methylbenzohydrazide] | 71.8 | 78.2 | inhibition at 0.003 µM ([2]; 3 nM): 3%; inhibition at 0.03 µM ([2]; 30 nM): 41%
16 | Cc1ccc(C(=O)NNC(=O)c2c(C)cccc2Cl)cc1C#Cc1cnc2ccccc2n1 [I.27, N′-(2-Chloro-6-methylbenzoyl)-4-methyl-3-[2-(quinoxalin-2-yl)ethynyl]benzohydrazide] | 79.3 | 75.3 | inhibition at 0.003 µM ([2]; 3 nM): 0%; inhibition at 0.03 µM ([2]; 30 nM): 55%
17 | Cc1ccc(C(=O)NNCc2cccnc2Cl)cc1C#Cc1cnc2ccccc2c1 [I.29, N′-(2-Chloronicotinyl)-4-methyl-3-[2-(3-quinolyl)ethynyl]benzohydrazide] | 27.7 | 78.5 | 
18 | Cc1ccc(C(=O)NNC(=O)c2ccccc2C)cc1C#Cc1cnc2ccccc2c1 [I.30, N′-(2-Methylbenzoyl)-4-methyl-3-[2-(3-quinolyl)ethynyl]benzohydrazide] | 49 | 85 | 
19 | CCc1cccc(Cl)c1C(=O)NNC(=O)c1ccc(C)c(C#Cc2cnc3ccccc3c2)c1 [I.31, N′-(2-Chloro-6-ethylbenzoyl)-4-methyl-3-[2-(3-quinolyl)ethynyl]benzohydrazide] | 74.2 | 81.4 | 
20 | Cc1ccc(C(=O)NNC(=O)c2c(Cl)cccc2C(C)C)cc1C#Cc1cnc2ccccc2c1 [I.32, N′-(2-Chloro-6-isopropylbenzoyl)-4-methyl-3-[2-(3-quinolyl)ethynyl]benzohydrazide] | 50.6 | 81.9 | 
21 | COc1cccc(Cl)c1C(=O)NNC(=O)c1ccc(C)c(C#Cc2cnc3ccccc3c2)c1 [I.34, N′-(2-Chloro-6-methoxybenzoyl)-4-methyl-3-[2-(3-quinolyl)ethynyl]benzohydrazide] | 75.5 | 82.2 | 
22 | Cc1ccc(C(=O)NNC(=O)c2c(C)cccc2[N+](=O)[O-])cc1C#Cc1cnc2ccccc2c1 [I.36, N′-(2-Methyl-6-nitrobenzoyl)-4-methyl-3-[2-(3-quinolyl)ethynyl]benzohydrazide] | 75.9 | 77.3 | 
23 | Cc1ccc(C(=O)NNC(=O)c2c(Cl)cccc2I)cc1C#Cc1cnc2ccccc2c1 [I.39, N′-(2-Chloro-6-iodobenzoyl)-4-methyl-3-[2-(3-quinolyl)ethynyl]benzohydrazide] | 77.1 | 80.5 | 
24 | Cc1ccc(C(=O)NNC(=O)c2ccccc2Cl)cc1C#Cc1cnc2ccccc2c1 [I.40, N′-(2-Chlorobenzoyl)-4-methyl-3-[2-(3-quinolyl)ethynyl]benzohydrazide] | 59.9 | 84.3 | 
25 | Cc1ccc(C(=O)NNC(=O)c2c(Cl)cccc2Cl)cc1C#Cc1cnc2cccnn12 [I.41, N′-(2,6-Dichlorobenzoyl)-4-methyl-3-[(imidazo(1,2-b)pyridazin-3-yl)ethynyl]benzohydrazide] | 82.5 | 81.1 | 
26 | Cc1ccc2ncc(C#Cc3cc(C(=O)NNC(=O)c4c(C)cccc4Cl)ccc3C)cc2c1 [I.44, N′-(2-Chloro-6-methylbenzoyl)-4-methyl-3-[2-(6-methyl-3-quinolyl)ethynyl]benzohydrazide] | 77.7 | 84.4 | 
27 | Cc1ccc(C(=O)N(C)NC(=O)c2c(C)cccc2Cl)cc1C#Cc1cnc2ccccc2c1 [I.45, N-Methyl-N′-(2-Chloro-6-methylbenzoyl)-4-methyl-3-[2-(3-quinolyl)ethynyl]benzohydrazide] | 10.2 | 78.2 | 
28 | Cc1ccc(C(=O)NNC(=O)c2c(C)cccc2C)cc1C#Cc1cnc2ccccc2c1 [I.46, N′-(2,6-Dimethylbenzoyl)-4-methyl-3-[2-(3-quinolyl)ethynyl]benzohydrazide] | 77.9 | 83.9 | 
29 | Cc1ccc(C(=O)NNC(=O)c2c(C)cccc2Cl)cc1C#Cc1cnc2ccc(Cl)cc2c1 [I.50, N′-(2-Chloro-6-methylbenzoyl)-4-methyl-3-[2-(6-chloro-3-quinolyl)ethynyl]benzohydrazide] | 69.6 | 75 | 
30 | Cc1cccc(Cl)c1C(=O)NNC(=O)c1cccc(C#Cc2cnc3ccccc3c2)n1 [I.60, N′-(2-Chloro-6-methylbenzoyl)-6-[2-(3-quinolyl)ethynyl]pyridine-2-carboxylic acid hydrazide] | 8.6 | 8.5 | 
